Measured values taken from article PMC2263054, “Functional evolution of the vitamin D and pregnane X receptors” (BMC Evolutionary Biology, 2007).

Legend:
[1] = test system: ethoxyresorufin O-deethylase (EROD) activity (CYP1A-like activity); assay: EROD assay in zebrafish primary hepatocytes; conditions: zebrafish primary hepatocytes; DIM at concentrations of 2 μM and greater
Procedure: (§1) The cells are cultured at 26°C in ambient atmosphere.

[2] = test system: glyceraldehyde 3-phosphate dehydrogenase (GAPDH); assay: zebrafish in vivo liver transcription, semi-quantitative RT-PCR: GAPDH; conditions: 15 mg/kg intraperitoneally, single dose, 48 hr
Procedure: Adult zebrafish were purchased from a commercial fish supplier and acclimatized for at least two-weeks in 20 L tanks with flow-through freshwater at 22°C. A single dose of 15 mg/kg of 5α-cyprinol, 5β-cyprinol 27-sulfate, 5α-scymnol or 5β-scymnol-27 sulfate, dissolved in saline, was injected intraperitoneally. A control group was injected with saline. After 48 hr, the animals were decapitated and livers of three fish (n = 5 each group) were removed, pooled and weighed, totalizing 15 fish per group. Fish were not fed throughout the experimental period.
To study the transcription of CYP3C1, ABCB5, PXR, GAPDH and β-actin genes in zebrafish, initial fragments of these genes were identified (Genbank: AW202769, Genbank: BQ284593, Genbank: AAM22215, Genbank: BC083506, Genbank: AF057040, respectively). […] Primer pairs for amplifying CYP3C1 fragment were 5'-[…]-3' (sense) and 5'-[…]-3' (antisense) and for amplifying ABCB5 were 5'-[…]-3' (sense) and 5'-[…]-3' (antisense). The PCR primers for PXR were 5'-[…]-3' (sense) and 5'-[…]-3' (antisense), for amplifying GAPDH were 5'-[…]-3' (sense) and 5' […] 3' (antisense) and for β-actin were 5'-[…]-3' (sense) and 5'-[…]-3' (antisense). RNA was isolated using Trizol (Invitrogen) according to manufacturer's instructions. […] The RNA integrity was checked by non-denaturing gel electrophoresis using 1 μg of total RNA in each sample.
The PXR, CYP3C1, ABCB5 and GAPDH transcript levels were quantified using Gel-Quant™ (Multiplexed Biotechologies) and β-actin was used to normalize the data. The Shapiro-Wilk W test was used to evaluate normality. When data were parametric the analysis was performed using Student t test; otherwise Mann Whitney U test was applied.

zebrafish PXR = conditions: luciferase reporter in HepG2 cells, normalized to 20 μM androstanol
[3] = test system: testosterone 6β-hydroxylation activity (CYP3A-like activity); assay: testosterone hydroxylation (HPLC) in zebrafish primary hepatocytes
Procedure: as §1
100 μL of sample, calibration standard, or quality material standard were pipetted into separate microcentrifuge tubes and mixed with 100 μL of methanol. Samples were vortexed and centrifuged at 13,000 rpm for 4 min. The supernatant was then injected into the HPLC.
The flow rate was 1.2 mL/min and total run time was 25 min.

SMILES	effect on EROD activity [1]	liver transcription of GAPDH [2]	activation of recombinant zebrafish PXR (zebrafish PXR)	increase in 6β-hydroxylation activity compared to vehicle-treated control [3]
C[C@H](CCCC(CO)COS(=O)(=O)O)[C@H]1CC[C@H]2[C@@H]3[C@H](O)C[C@H]4C[C@H](O)CC[C@]4(C)[C@H]3C[C@H](O)[C@]12C (stereo partly drawn) [5α-Cyprinol 27-sulfate]	found not to affect EROD activity	2.38 ± 0.79 arbitrary units normalized to β-actin	all activate recombinant zebrafish PXR	15–20%
C[C@H](CCCC(CO)CO)[C@H]1CC[C@H]2[C@@H]3[C@H](O)C[C@H]4C[C@H](O)CC[C@]4(C)[C@H]3C[C@H](O)[C@]12C [5α-Cyprinol, 5α-cholestan-3α,7α,12α,26,27-pentol]	–	1.50 ± 0.88 arbitrary units normalized to β-actin	–	–
